pIC50: −log10 of the molar value.
What was measured:
[1] = Inhibition of recombinant rat/human ADAMTS7 hybrid using HiLyteFluor-488 DELSSMVLELRGLRT-K(QXL520)-E-NH2 as substrate incubated for 120 mins and measured by FRET assay
[2] = Inhibition of recombinant rat/human ADAMTS12 hybrid using HiLyteFluor-488 DELSSMVLELRGLRT-K(QXL520)-E-NH2 as substrate incubated for 120 mins and measured by FRET assay

Row | SMILES | pIC50 [1] | pIC50 [2]
1 | CCCCC1(CNC(=O)c2cnn(-c3ccccc3)n2)NC(=O)NC1=O (racemic) | 7.05 | 4.82
2 | O=C1NC(=O)C(CNC(=O)c2cnn(-c3ccc(F)cc3)n2)(c2ncsc2C(F)(F)F)N1 (stereo in doubt) | 7.57 | 5.46
3 | Cn1ccnc1C1(CNC(=O)c2cnn(-c3ccc(F)cc3)n2)NC(=O)NC1=O (racemic) | 8.40 | 6.49
4 | O=C1NC(=O)C(CNC(=O)c2cnn(-c3ccc(F)c(F)c3)n2)(c2nccs2)N1 (centres undefined) | 8.15 | 6.51
5 | O=C1NC(=O)[C@](CNC(=O)c2cnn(-c3cc(F)ccc3F)n2)(C2CC2)N1 | 6.96 | 5.26
6 | O=C1NC(=O)C(CNC(=O)c2cnn(-c3ccccc3)n2)(C2CCCCC2)N1 (racemic) | 6.84 | 4.30
7 | CC(C)(C)CC1(CNC(=O)c2cnn(-c3ccccc3)n2)NC(=O)NC1=O (centres undefined) | 6.60 | 5.30
8 | O=C1NC(=O)C(CNC(=O)c2cnn(-c3ccccc3)n2)(C2CCCOC2)N1 (stereo in doubt; form 2) | 6.60 | 5.19
9 | CC1(C)CC1C1(CNC(=O)c2cnn(-c3ccccc3)n2)NC(=O)NC1=O (stereo in doubt; form 2) | 7.42 | 5.70
10 | O=C1NC(=O)C(CNC(=O)c2cnn(-c3cccc(F)c3)n2)(C2CCC2)N1 (centres undefined) | 8.10 | 5.66
11 | COc1ccc(-n2ncc(C(=O)NC[C@@]3(C4CC4)NC(=O)NC3=O)n2)cc1 | 7.00 | 5.22
12 | O=C1NC(=O)C(CNC(=O)c2nc(-c3ccccc3)no2)(CC2CC2)N1 (centres undefined) | 6.60 | 5.54
13 | O=C1NC(=O)[C@](CNC(=O)c2cnn(-c3ccc(OC(F)(F)F)cc3)n2)(C2CC2)N1 | 6.72 | < 4.30
14 | O=C1NC(=O)C(CNC(=O)c2cnn(-c3ccccc3)n2)(C2CCC2)N1 (stereo in doubt) | 7.11 | 4.96
15 | O=C1NC(=O)C(CNC(=O)c2cnn(-c3ccc(F)cc3)n2)(C2(F)CC2)N1 (racemic) | 6.72 | 5.10
16 | Cn1ccnc1C1(CNC(=O)c2cnn(-c3ccc(F)cc3)n2)NC(=O)NC1=O (stereo in doubt) | 8.70 | 6.89
17 | CC(C)C1(CNC(=O)c2cnn(-c3ccc(F)cc3F)n2)NC(=O)NC1=O (racemic) | 7.01 | 4.70
18 | O=C1NC(=O)C(CNC(=O)c2cnn(-c3ccc(F)cc3)n2)(c2ccncc2)N1 (racemic) | 6.85 | 5.54
19 | O=C1NC(=O)C(CNC(=O)c2cnn(-c3ccc(F)c(Cl)c3)n2)(c2nccs2)N1 (racemic) | 7.46 | 5.92
20 | O=C1NC(=O)C(CNC(=O)c2cnn(-c3ccccc3)n2)(c2ccncc2)N1 (racemic) | 7.70 | 5.55
21 | O=C1NC(=O)C(CNC(=O)c2cnn(-c3ccc(F)cc3)n2)(c2ncsc2C2CC2)N1 (racemic) | 8.10 | 6.34
22 | Cn1ccnc1C1(CNC(=O)c2cnn(-c3cc(F)c(F)c(F)c3)n2)NC(=O)NC1=O (stereo in doubt) | 8.52 | 6.97
23 | Cn1nccc1C1(CNC(=O)c2cnn(-c3ccc(F)cc3)n2)NC(=O)NC1=O (racemic) | 8.00 | 5.62
24 | O=C1NC(=O)C(CNC(=O)c2cnn(-c3ccc(F)cc3)n2)(C2CCCC2)N1 (racemic) | 6.42 | 4.30

Row | SMILES | pIC50 [1] | pIC50 [2]
25 | CC(C)C1(CNC(=O)c2cnn(-c3ccccc3)n2)NC(=O)NC1=O (racemic) | 6.58 | 4.84
26 | O=C1NC(=O)C(CNC(=O)c2cnn(-c3ccc(F)c(Cl)c3)n2)(C2CCC2)N1 (centres undefined) | 7.74 | 5.74
27 | O=C1NC(=O)[C@](CNC(=O)c2cnn(-c3ccc(F)cc3)n2)(C2CC2)N1 | 7.59 | 5.85
28 | Cn1ccnc1C1(CNC(=O)c2cnn(-c3ccccc3)n2)NC(=O)NC1=O (racemic) | 8.40 | 6.44
29 | CC(C)C1(CNC(=O)c2cnn(-c3ccc(F)c(F)c3)n2)NC(=O)NC1=O (stereo in doubt) | 8.15 | 6.04
30 | O=C1NC(=O)C(CNC(=O)c2cnn(-c3cccc(Cl)c3)n2)(C2CCC2)N1 (centres undefined) | 7.32 | 5.66
31 | O=C1NC(=O)[C@](CNC(=O)c2cnn(-c3ccc(C(F)(F)F)c(F)c3)n2)(C2CC2)N1 | 6.92 | 5.34
32 | CCC1(CNC(=O)c2cnn(-c3ccc(F)cc3)n2)NC(=O)NC1=O (racemic) | 6.70 | 4.89
33 | CC(C)C1(CNC(=O)c2cnn(-c3cccc(F)c3)n2)NC(=O)NC1=O (racemic) | 7.34 | 5.35
34 | O=C1NC(=O)[C@](CNC(=O)c2cnn(-c3ccc(Cl)c(Cl)c3)n2)(C2CC2)N1 | 7.46 | 6.04
35 | O=C1NC(=O)[C@](CNC(=O)c2cnn(-c3cccc(Cl)c3)n2)(C2CC2)N1 | 7.68 | 6.35
36 | CC(C)(C)C1(CNC(=O)c2cnn(-c3ccccc3)n2)NC(=O)NC1=O (stereo in doubt) | 7.33 | 4.88
37 | CC(C)(C)C1(CNC(=O)c2cnn(-c3ccc(F)cc3)n2)NC(=O)NC1=O (racemic) | 7.16 | 5.22
38 | CCC(C)C1(CNC(=O)c2cnn(-c3ccc(F)cc3)n2)NC(=O)NC1=O (racemic) | 8.00 | 5.66
39 | CC1(CNC(=O)c2cnn(-c3ccc(F)cc3)n2)NC(=O)NC1=O (stereo in doubt) | 7.08 | 5.05
40 | C[C@H](NC(=O)c1cnn(-c2ccccc2)n1)C1(C2CC2)NC(=O)NC1=O (some centres undefined) | 6.01 | 4.60
41 | N#Cc1cccc(-n2ncc(C(=O)NCC3(C4CCC4)NC(=O)NC3=O)n2)c1 (centres undefined) | 7.11 | 5.40
42 | O=C1NC(=O)C(CNC(=O)c2cnn(-c3ccccc3)n2)(CC2CC2)N1 (racemic) | 6.17 | 4.60
43 | CC1(C)CC1C1(CNC(=O)c2cnn(-c3ccccc3)n2)NC(=O)NC1=O (stereo in doubt; form 1) | 6.49 | 4.89
44 | O=C1NC(=O)C(CNC(=O)c2cnn(-c3ccc(F)cc3F)n2)(C2CCC2)N1 (centres undefined) | 7.20 | 5.07
45 | O=C1NC(=O)[C@](CNC(=O)c2cnn(-c3ccccc3Cl)n2)(C2CC2)N1 | 6.33 | 5.00
46 | O=C1NC(=O)C(CNC(=O)c2cnn(-c3ccc(F)cc3)n2)(C2CC(F)(F)C2)N1 (racemic) | 6.66 | < 4.30
47 | CC(C)C1(CNC(=O)c2cnn(-c3cccc(C#N)c3)n2)NC(=O)NC1=O (stereo in doubt) | 7.11 | 5.59
48 | CC(C)(C)C1(CNC(=O)c2cnn(-c3ccccc3)c2)NC(=O)NC1=O (racemic) | 6.26 | 5.25

Row | SMILES | pIC50 [1] | pIC50 [2]
49 | CC(CO)C1(CNC(=O)c2cnn(-c3ccccc3)n2)NC(=O)NC1=O (centres undefined) | 6.72 | 4.77
50 | CC(C)(C)C1(CNC(=O)c2cnn(-c3ccc(F)cc3)n2)NC(=O)NC1=O (stereo in doubt) | 7.10 | 5.66
51 | CCC(C)C1(CNC(=O)c2cnn(-c3ccc(F)cc3)n2)NC(=O)NC1=O (stereo in doubt; form 1) | 7.21 | 5.54
52 | O=C1NC(=O)[C@](CNC(=O)c2cnn(-c3ccccc3)n2)(C2CC2)N1 | 7.16 | 5.84
53 | O=C1NC(=O)[C@](CNC(=O)c2cnn(-c3ccc(F)cc3F)n2)(C2CC2)N1 | 7.39 | 5.37
54 | CC(C)C1(CNC(=O)c2cnn(-c3ccc(F)c(F)c3)n2)NC(=O)NC1=O (racemic) | 7.96 | 5.60
55 | O=C1NC(=O)[C@](CNC(=O)c2cnn(-c3ncc(F)cc3F)n2)(C2CC2)N1 | 6.72 | 5.21
56 | O=C1NC(=O)C(CNC(=O)c2cnn(-c3ccc(F)cc3)n2)(c2ccccn2)N1 (racemic) | 8.00 | 5.52
57 | O=C1NC(=O)[C@](CNC(=O)c2cnn(-c3ccc(F)cn3)n2)(C2CC2)N1 | 6.85 | 5.32
58 | O=C1NC(=O)C(CNC(=O)c2cnn(-c3ccc(F)cc3)n2)(C2CCC2)N1 (racemic) | 7.01 | 4.46
59 | CC(C)C1(CNC(=O)c2cnn(-c3cccc(C#N)c3)n2)NC(=O)NC1=O (racemic) | 6.77 | 5.22
60 | O=C1NC(=O)C(CNC(=O)c2cnn(-c3ccc(F)cc3)n2)(C2(Cl)CC2)N1 (racemic) | 7.13 | 5.43
61 | O=C1NC(=O)[C@](CNC(=O)c2coc(-c3ccc(F)cc3)n2)(C2CC2)N1 | 7.26 | 5.77
62 | CCn1nccc1C1(CNC(=O)c2cnn(-c3ccc(F)cc3)n2)NC(=O)NC1=O (racemic) | 7.85 | 5.55
63 | O=C1NC(=O)[C@](CNC(=O)c2nnc(-c3ccc(F)cc3)o2)(C2CC2)N1 | 6.46 | 4.92
64 | Cn1ccnc1C1(CNC(=O)c2cnn(-c3cc(F)c(F)c(F)c3)n2)NC(=O)NC1=O (racemic) | 8.30 | 6.70
65 | O=C1NC(=O)C(CNC(=O)c2cnn(-c3ccccc3)n2)(C2CCCOC2)N1 (racemic) | 7.21 | 5.07
66 | N#Cc1cccc(-n2ncc(C(=O)NC[C@@]3(C4CC4)NC(=O)NC3=O)n2)c1 | 7.49 | 6.22
67 | O=C1NC(=O)C(CNC(=O)c2cnn(-c3ccc(F)cc3)n2)(C2CCCCC2)N1 (centres undefined) | 7.85 | 5.39
68 | O=C1NC(=O)C(CNC(=O)c2cnn(-c3cc(F)c(F)c(F)c3)n2)(C2CCC2)N1 (centres undefined) | 7.80 | 5.51
69 | CC(C)C1(CNC(=O)c2cnn(-c3ccc(F)cc3)n2)NC(=O)NC1=O (stereo in doubt) | 8.10 | 5.56
70 | O=C1NC(=O)[C@](CNC(=O)c2cc(-c3cnn(CC4CC4)c3)no2)(C2CC2)N1 | 6.26 | 4.30
71 | O=C1NC(=O)[C@](CNC(=O)c2cnn(-c3cc(F)c(F)c(F)c3)n2)(C2CC2)N1 | 7.60 | 5.96
72 | O=C1NC(=O)C(CNC(=O)c2cnn(-c3ccc(F)cc3F)n2)(c2nccs2)N1 (racemic) | 7.06 | 5.18
